Entries after “also recorded” stand apart in the source; their conditions may differ.
What was measured:
[1] = Lipid clearance: mouse liver tissue level and % dose remaining in liver after intravenous administration; format: in vivo
[2] = tested on: female CD-1 mice; test: Luciferase expression after subcutaneous administration of lipid/mRNA formulations (whole body BLI); format: in vivo; conditions: 0.5 mpk
Protocol: The effect of the lipids of the disclosure on protein expression upon subcutaneous administration was studied. Formulations containing lipids of the disclosure and an mRNA expressing luciferase or hEPO were administered subcutaneously to female CD-1 mice at 0.5 mpk. Expression levels were obtained via whole body luminescent imaging (BLI) at 3, 6 and 24 hours after injection and expression levels in liver, spleen and at the injection site were evaluated ex vivo after 24 hours. […] See also Tables 35 and 36, and FIGS. 19 and 27.
Table 35 summarizes the luciferase expression levels using various nanoparticle compositions of the disclosure, and the luciferase expression levels using various nanoparticle compositions 6f the disclosure as compared to the luciferase expression level using an MC3 formulation after subcutaneous administration, as described above.

[3] = LNP formulation characterization (particle size, PDI, RNA encapsulation, endotoxin); format: physicochemical; conditions: ± SD within one assay run
Protocol: Preparation of LNP formulations: Lipids were dissolved in ethanol at molar ratios of 50:10:38.5:1.5 (ionizable lipid: DSPC: cholesterol:PEG-lipid). The lipid mixture was combined with a 6.25 mM sodium acetate buffer (pH 5) containing mRNA at a ratio of 3:1 (aqueous:ethanol) using a microfluidic mixer. Formulations were dialyzed against phosphate buffered saline (pH 7.4) in dialysis cassettes for at least 18 hours. Formulations were concentrated via centrifugal filtration, passed through a 0.22-μm filter and stored at 4° C. until use. […] The apparent pKa of the LNP formulation was determined via a TNS assay.

[4] = pKa / apparent pKa of nanoparticle compositions; conditions: Table 1B; formulated with hEPO mRNA
[5] = Complement activation indicators in non-human primates; format: in vivo
Protocol: The tolerability and efficacy of nanoparticle compositions to non-human primates was also investigated using a sample formulation including Compound 18. The formulation was prepared according to the standard MC3 formulation described above and included an hEPO mRNA. Primates were administered a single dose of 0.05 (Group 1), 0.3 (Group 2), or 1.0 (Group 3) mpk via intravenous infusion for 60 minutes. Three primates were administered each dose. Expression of hEPO was measured prior to dosing and at 2, 6, 24, 48, and 96 hours post-treatment (Table 26). Table 28 includes levels of indicators of complement activation, while Table 29 includes cytokine induction data.

[6] = tested on: hEPO mRNA; test: hEPO expression after subcutaneous administration to mice; format: in vivo, CD-1 mice; conditions: 6 hr. time point, relative to MC3
Protocol: The numbers 1-11 in this figure correspond to MC3, PBS, and Compounds 18, 25, 48, 49, 111, 60, 168, 207, and 233, respectively.
FIG. 27 is a graph showing the hEPO mRNA expression in CD1-mice measured 3 h (left block), 6 h (middle block) and 24 h (right block) after subcutaneous administration of various nanoparticle compositions at 0.5 mpk. Numbers 1-9 refer to compositions containing an mRNA expressing hEPO and the following: 1: PBS, 2: Compound 18, 3: Compound 30; 4: Compound 96; 5: Compound 151; 6: Compound 98; 7: Compound 163; 8: Compound 164; 9: Compound 165.

[7] = Protein expression with nanoparticle composition containing Compound 18 versus MC3 counterpart, 0.1 and 0.3 mpk; format: in vivo; conditions: dose response between 0.1 and 0.3 mpk
[8] = tested on: cynomolgus monkeys; test: Repeat dose hEPO expression in cynomolgus monkeys, once weekly for 5 weeks; format: in vivo, cynomolgus monkey; conditions: 0.2 mg/kg hEPO mRNA, 60-minute intravenous infusion, n=4
Protocol: NHP studies: Nonhuman primate studies were conducted using naïve cynomolgus monkeys (cynos), 2-4 years old, weighing 2-6 kg. No treatment randomization or blinding methods were used for any of the animal studies. Sample sizes were determined by the resource equation method. For injection, mRNA-LNPs in phosphate buffered saline (PBS) were administered by 60-minute intravenous infusion using a temporary indwelling catheter inserted in a peripheral vein.
hEPO ELISA for NHP samples: Human Epo levels were measured using a human erythropoietin immunoassay. Cytokines levels were measured using a non-human primate cytokine kit.
The level of expression provided by LNPs of the disclosure in a repeat dose experiment in primates was evaluated. A 0.2 mg/kg dose of hEPO mRNA in a compound 18-based LNP was delivered via a 60-minute intravenous infusion to cynomolgus monkeys (n=4) once weekly for 5 weeks.

[9] = tested on: LDLr knockout mice; test: Expression study in LDLr knockout mice; format: in vivo; conditions: compound 18 based LNPs
[10] = in vivo; conditions: male, Sprague-Dawley, rat, iv
Protocol: LNP administration to animals: mRNA-LNPs diluted in phosphate buffered saline (PBS) were injected intravenously (5 mL/kg) into female CD-1 female mice (18 to 22 g in body weight) and male Sprague-Dawley rats (225-250 g in body weight) via the tail vein using 29 g, 3/10 cc insulin syringes (mice) or 27 g, 1 mL syringes (rats) after gentle warming of the animals using a heat lamp for 3 minutes.
Protein was precipitated and analyzed against calibration standards prepared in matching blank. Chromatographic separation and quantification was accomplished with a LC-MS/MS System. Samples were injected and separated via HPLC A triple-quadrupole MS/MS system operated in positive ion mode was used for signal detection.
PK analysis of the individual plasma and tissue concentration data was performed using anon-validated program (Phoenix WinNonlin®, Version 7.0 (Pharsight Corp., Mountain View, Calif.)). Kinetic parameters were estimated using a noncompartmental model (Plasma (200-202), Uniform weighting, extravascular dosing with sparse sampling). The AUG was calculated using the linear trapezoidal rule. All derived parameters are reported to 3 significant figures with the exception of time to peak concentration (Tmax) and halflife (HL), which are reported to one decimal place. No further statistical analyses were performed on the plasma concentration data or derived pharacokinetic parameters.

Structure (SMILES): CCCCCC=CCC=CCCCCCCCCC(CCCCCCCCC=CCC=CCCCCC)OC(=O)CCCN(C)C (stereo not shown) [MC3, heptatriaconta-6,9,28,31-tetraen-19-yl 4-(dimethylamino)butanoate, reference compound]
- % Dose Remaining in Liver 6 h ([1]; first column headed 6 h (Table 3D)): 80%
- % Remaining dose at 6 h ([1]; mouse liver, 6 h): >98%
- % Remaining dose at 24 h ([1]; mouse liver, 24 h): 79.7%
- concentration at 6 h ([1]; mouse, liver, 0.5 mg/kg, 6 h): 85400 ng/g
- concentration at 24 h ([1]; mouse, liver, 0.5 mg/kg, 24 h): 67400 ng/g
- % Dose Remaining in Liver 6 h ([1]; second column headed 6 h (Table 3D)): 54%
- Lipid/MC3 AUC ratio (luciferase) [2]: 1
- Luciferase expression AUC ([2]; BLI at 3, 6 and 24 hours): 1.7127E+10 (p/s)*h
- % Encapsulation [3]: 97.3 ± 1.9%
- PDI (polydispersity index) [3]: 0.11 ± 0.04
- Apparent pKa [4]: 6.35

Structure (SMILES): CCCCCCCCCOC(=O)CCCCCCCN(CCO)CCCCCCCC(=O)OC(CCCCCCCC)CCCCCCCC [Compound 18, Heptadecan-9-yl 8-((2-hydroxyethyl)(8-(nonyloxy)-8-oxooctyl)amino)octanoate]
- Bb fragment ([5]; Group 1 (0.05 mpk), 2 h): 5341 ng/mL
- C5b9 ([5]; Group 1 (0.05 mpk), 2 h): 1959 ng/mL
- Bb fragment ([5]; Group 1 (0.05 mpk), 6 h): 3037 ng/mL
- C3a ([5]; Group 1 (0.05 mpk), 6 h): 12385 ng/mL
- C5b9 ([5]; Group 1 (0.05 mpk), 6 h): 786 ng/mL
- Bb fragment ([5]; Group 1 (0.05 mpk), 24 h): 1496 ng/mL
- C3a ([5]; Group 1 (0.05 mpk), 24 h): 11596 ng/mL
- Bb fragment ([5]; Group 1 (0.05 mpk), Day 5): 1273 ng/mL
- C3a ([5]; Group 1 (0.05 mpk), Day 5): 11945 ng/mL
- Bb fragment ([5]; Group 1 (0.05 mpk), Predose): 1375 ng/mL
- C5b9 ([5]; Group 1 (0.05 mpk), Predose): 169 ng/mL
- Bb fragment ([5]; Group 2 (0.3 mpk), 2 h): 5356 ng/mL
- C5b9 ([5]; Group 2 (0.3 mpk), 2 h): 393 ng/mL
- Bb fragment ([5]; Group 2 (0.3 mpk), 6 h): 7157 ng/mL
- C3a ([5]; Group 2 (0.3 mpk), 6 h): 32436 ng/mL
- C5b9 ([5]; Group 2 (0.3 mpk), 6 h): 1333 ng/mL
- Bb fragment ([5]; Group 2 (0.3 mpk), 24 h): 3680 ng/mL
- C3a ([5]; Group 2 (0.3 mpk), 24 h): 19721 ng/mL
- Bb fragment ([5]; Group 2 (0.3 mpk), Day 5): 2400 ng/mL
- C3a ([5]; Group 2 (0.3 mpk), Day 5): 16207 ng/mL
- Bb fragment ([5]; Group 2 (0.3 mpk), Predose): 1461 ng/mL
- C5b9 ([5]; Group 2 (0.3 mpk), Predose): 157 ng/mL
- Bb fragment ([5]; Group 3 (1.0 mpk), 2 h): 8849 ng/mL
- C5b9 ([5]; Group 3 (1.0 mpk), 2 h): 801 ng/mL
- Bb fragment ([5]; Group 3 (1.0 mpk), 6 h): 12820 ng/mL
- C3a ([5]; Group 3 (1.0 mpk), 6 h): 51996 ng/mL
- C5b9 ([5]; Group 3 (1.0 mpk), 6 h): 2928 ng/mL
- Bb fragment ([5]; Group 3 (1.0 mpk), 24 h): 8601 ng/mL
- C3a ([5]; Group 3 (1.0 mpk), 24 h): 35843 ng/mL
- Bb fragment ([5]; Group 3 (1.0 mpk), Day 5): 2834 ng/mL
- C3a ([5]; Group 3 (1.0 mpk), Day 5): 19101 ng/mL
- Bb fragment ([5]; Group 3 (1.0 mpk), Predose): 1529 ng/mL
- C5b9 ([5]; Group 3 (1.0 mpk), Predose): 238 ng/mL
- Novel lipid/MC3 expression ratio, s.c. hEPO 0.5 mpk [6]: 4.26
- 0.3 mpk AUC relative to 0.1 mpk dose AUC [7]: about three times
- hEPO exposure over repeat dosing [8]: Efficient expression; also recorded: Consistent exposure
- expression in LDLr knockout mice [9]: almost complete loss in expression
- half-life [10]: 5.8 h

— patent US10857105B2, “Compounds and compositions for intracellular delivery of therapeutic agents” (ModernaTX, Inc., priority 2017, dated 2020)
